Laboratory results as given in paper PMC3034772 (Pharmaceutical research, 2010).
Several values for one entry are separate records, joined by “and”; a condition that tells them apart may be missing. Equal values may be shown once. Read-outs that look alike come from different tables or passages of the source.

Key:
[1] = PAMPA
[2] = Charge class Q, dominant calculated charge state at pH 7.4; assay type: physicochemical
[3] = In situ brain perfusion, individual literature values; conditions: from literature PS
[4] = In combo PAMPA-BBB model, calculated log Po in situ
[5] = PAMPA; for Pm^7.4: pH 7.4
physchem = conditions: pKa
[6] = cited from earlier work
[7] = cited from earlier work; remark: listed apart in the source
Double-Sink PAMPA = conditions: intrinsic permeability, Type DS, Double-Sink PAMPA data scaled to the 3 μL level
PAMPA-BBB Type II = conditions: 3 μL lipid-volume coated filters
[8] = in vivo
[9] = efflux inhibition mrp1(−/−); cited from earlier work
[10] = In situ brain perfusion permeability; conditions: efflux inhibition mrp1(−/−); from literature PS
[11] = dominant calculated concentration fraction of the drug in a charge state

## CCC(=O)C(CC(C)N(C)C)(c1ccccc1)c1ccccc1 (stereo not drawn) [Methadone]
[1]
  log Po: −2.18

## O=C1C[C@@H](c2ccc(O)cc2)Oc2cc(O)cc(O)c21 [Naringenin]
[2]; [11]
  Q (charge class): 0
[3]; efflux inhibition PSC833
  log Po^in situ (obs): −3.96
[4]; efflux inhibition PSC833
  obs–calc (log Po^in situ): 0.0
[5]
  log PABL: −4.00
  log Po: −3.94
  log Ppara: −6.93
  Pm^7.4: 33
physchem
  pKa: 10.4
[6]; in vivo
  PS: 105 10^−4 mLg^−1s^−1
  log PS: −1.98

## O=c1c(O)c(-c2ccc(O)c(O)c2)oc2cc(O)cc(O)c12 [Quercetin]
[2]; [11]
  Q (charge class): 0
[3]; efflux inhibition GF120918
  log Po^in situ (obs): −4.03
[7]; efflux inhibition: PSC833
  PS: 2 10^−4 mLg^−1s^−1
  log PS: −3.67
[4]; difference observed minus calculated, external set, no efflux inhibition
  obs–calc (log Po^in situ): −0.4
[4]; efflux inhibition GF120918
  obs–calc (log Po^in situ): 0.7
[4]; efflux inhibition: PSC833
  obs–calc (log Po^in situ): −0.3
[5]
  log PABL: −4.92
  log Po: −4.40
  log Ppara: −6.87
  Pm^7.4: 5
physchem
  pKa: 9.4
[6]; efflux inhibition GF120918
  PS: 22 10^−4 mLg^−1s^−1
  log PS: −2.65

## C=C[C@H]1C[N@@]2CC[C@H]1C[C@@H]2[C@@H](O)c1ccnc2ccc(OC)cc12 [Quinidine]
[2]; [11]
  Q (charge class): +
[7]; rat, in vivo
  PS: 4 10^−4 mLg^−1s^−1

## O=C(O)c1ccccc1O [Salicylic Acid]
[2]; [11]
  Q (charge class): −
[4]; no efflux inhibition
  obs–calc (log Po^in situ): 0.9
Double-Sink PAMPA
  log Po: −3.34

## CCCC(CCC)C(=O)O [Valproic Acid]
[2]; [11]
  Q (charge class): −
[3]; efflux inhibition column: Kd
  log Po^in situ (obs): −2.54
[4]; efflux inhibition column: Kd
  obs–calc (log Po^in situ): −0.2
[4]; efflux inhibition mdr1a(−/−)
  obs–calc (log Po^in situ): −0.2
Double-Sink PAMPA
  log Po: −3.77
[6]; in vivo
  PS: 93 10^−4 mLg^−1s^−1
  log PS: −2.03

## COc1ccc(C(CN(C)C)C2(O)CCCCC2)cc1 (stereo not drawn) [Venlafaxine]
PAMPA-BBB Type II; PAMPA-BBB intrinsic permeability, Type II and I/II
  log Po: −2.17
PAMPA-BBB Type II; aqueous boundary layer permeability, Type II and I/II
  log PABL: −3.22
PAMPA-BBB Type II; membrane permeability at pH 7.4, Type II and I/II
  Pm^7.4: 32
[2]
  Q (charge class): +
[8]
  log Po^in situ (obs): −1.66
[4]
  obs–calc (log Po^in situ): 0.6
[6]; in vivo
  PS: 104 10^−4 mLg^−1s^−1
  log PS: −1.98

## CC[C@]1(O)C[C@@H]2CN(CCc3c([nH]c4ccccc34)[C@@](C(=O)OC)(c3cc4c(cc3OC)N(C)[C@H]3[C@@](O)(C(=O)OC)[C@H](OC(C)=O)[C@]5(CC)C=CCN6CC[C@]43[C@@H]65)C2)C1 [Vinblastine]
[2]; [11]
  Q (charge class): 0
[3]; efflux inhibition GF120918
  log Po^in situ (obs): −4.94
[3]; efflux inhibition PSC833
  log Po^in situ (obs): −5.06
[4]; efflux inhibition GF120918
  obs–calc (log Po^in situ): 0.2
[4]; efflux inhibition PSC833
  obs–calc (log Po^in situ): 0.1
[4]; efflux inhibition mdr1a(−/−)
  obs–calc (log Po^in situ): 0.2 and 0.4
[5]
  log PABL: −3.25
  log Po: −4.36
  log Ppara: −5.54
  Pm^7.4: 32
[6]; efflux inhibition GF120918
  PS: 6 10^−4 mLg^−1s^−1
  log PS: −3.25
[6]; in vivo
  PS: 4 10^−4 mLg^−1s^−1
  log PS: −3.37

## CC[C@]1(O)C[C@H]2CN(CCc3c([nH]c4ccccc34)[C@@](C(=O)OC)(c3cc4c(cc3OC)N(C=O)[C@H]3[C@@](O)(C(=O)OC)[C@H](OC(C)=O)[C@]5(CC)C=CCN6CC[C@]43[C@@H]65)C2)C1 [Vincristine]
[9]
  PS: 1 10^−4 mLg^−1s^−1
  log PS: −4.25
[2]; [11]
  Q (charge class): 0
[4]; efflux inhibition mdr1a(−/−)
  obs–calc (log Po^in situ): −0.1
[4]; efflux inhibition mrp1(−/−)
  obs–calc (log Po^in situ): −0.5
[5]
  log PABL: −4.62
  log Po: −4.54
  log Ppara: −7.67
  Pm^7.4: 14
[10]
  log Po^in situ (obs): −5.95

## NC(Cc1ccc(F)cc1)C(=O)O (stereo not drawn) [p-F-Phenylalanine]
[1]
  log Po: −6.13
[1]; pH 7.4
  Pm^7.4: 0.7
[2]
  Q (charge class): ±
